Assay results as given in patent publication US20250388602A1 (Genase Therapeutics B.V., priority 2022, published 2025).

Key:
ZIKV = test: anti-ZIKV CPE reduction assay in A549 cells (MTS); assay type: cell-based, ZIKV MR766 prototype strain
Description: The lung cancer epithelial cell line A549 was obtained from the American Type Culture Collection (ATCC; Rockville, MD, USA) and cultured in MEM medium (Gibco BRL, Gaithersburg, MD, USA) with 10% fetal calf serum (FCS; Gibco BRL), 2 mM L-glutamine (Gibco BRL) and 0.075% sodium bicarbonate (Gibco BRL).
The ZIKV MR766 prototype strain and the DENV-2 laboratory-adapted New Guinea C strain were obtained from ATCC and stocks were grown in the C6/36 mosquito cell line (ATCC). Viral stock titers were determined using plaque assay in BHK-21 cells (ATCC).
The anti-ZIKV and anti-DENV-2 activity in A549 cells was determined using a tetrazolium-based colorimetric cytopathic effect (CPE) reduction assay. This assay has been described in detail before (Virology. 2021; doi.org/10.1016/j.virol.2021.07.003). […] Three hours after MTS incubation, virus was inactivated using 0.5% Triton X-100 (Thermo Fisher Scientific, Waltham, MA, USA) and the absorbance was then recorded at 490 nm with a 96-well plate reader and compared with four cell control replicates (cells without virus and drugs) and four virus control wells (cells with virus but without drug). […] Absorbance was recorded using the VersaMax ELISA™ microplate reader (Molecular Devices) and analyzed with the Softmax Pro® software (Molecular Devices, Version 4.0). […]

recombinant human DHODH = recombinant human DHODH (Homo sapiens (Human), UniProt Q02127); test: DHODH enzyme assay (Assay A), DCIP absorbance; assay type: biochemical; details: bins ≥10 nM-<100 nM and <10 nM; read-out: IC50 DHODH inhibition activity
MOLM-13 cells = test: MOLM-13 cell viability (Assay B), Cell Titer-Glo; assay type: cell-based
Summary of the method: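 Cells at 1,000 per well in RPMI/10% FBS were exposed to compound (10E-5 to 6E-12 M), with or without 100 μM uridine, for 72 h. Viability was read by CellTiter-Glo luminescence. Duplicates were run, and potency was taken from two independent experiments.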

recombinant human DHODH, sequence (Q02127 whole entry): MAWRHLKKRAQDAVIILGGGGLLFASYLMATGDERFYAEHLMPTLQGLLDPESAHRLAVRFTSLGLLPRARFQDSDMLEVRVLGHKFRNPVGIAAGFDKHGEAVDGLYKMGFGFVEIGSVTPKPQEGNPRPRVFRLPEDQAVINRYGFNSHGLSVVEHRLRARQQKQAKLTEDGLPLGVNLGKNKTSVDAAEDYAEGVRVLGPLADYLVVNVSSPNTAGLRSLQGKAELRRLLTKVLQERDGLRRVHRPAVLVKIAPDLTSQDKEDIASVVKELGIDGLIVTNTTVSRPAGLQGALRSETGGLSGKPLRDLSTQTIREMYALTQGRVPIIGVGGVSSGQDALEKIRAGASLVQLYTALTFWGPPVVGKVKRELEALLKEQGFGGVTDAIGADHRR

Compound: COc1ccc(F)c(-n2ncc3c2COC[C@H]3NC(=O)c2ncn3c2CCCC3)c1Cl (single isomer, unassigned) [Ex-9]
- antiviral activity against ZIKV (ZIKV): demonstrating antiviral activity
- IC50 (ZIKV; Zika virus, 72 h, MOI 1, 3 d of infection): 9.3 ± 2 nM
- hHEPs % remaining (in vitro; % remaining at 120 min, 1 μM): 87%
- half-life at 1 μM (in vitro; human, hepatocytes): > 10 h
- IC50 (recombinant human DHODH): < 10 nM
- IC50 (MOLM-13 cells; Homo sapiens, MOLM-13, 72 hours, bins ≥10 nM-<100 nM and <10 nM, read-out: IC50 MOLM13 inhibition activity): < 10 nM
- MOLM13 cell growth and/or viability (FIG. 2) (MOLM-13 cells; absence of uridine): reduce MOLM13 cell growth and/or viability
- effect on MOLM13 cell growth and/or viability on addition of excess uridine (FIG. 2) (MOLM-13 cells; presence of 100 μM uridine): largely prevented
